Data from patent publication US10618903B2, “Heteroaryl substituted aminopyridine compounds” (BRISTOL-MYERS SQUIBB COMPANY, priority 2015, dated 2020).

Experiments:
IRAK4 = IRAK4 (Homo sapiens (Human), UniProt Q9NWZ3); experiment: IRAK4 Inhibition Assay; type: biochemical; settings: ATP 500 μM; IRAK4 0.6 nM
In short: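 Mobility-shift kinase assay: 0.6 nM IRAK4, 500 μM ATP, 1.5 μM fluorescent peptide, 60 min, room temperature. Percent inhibition was normalised between enzyme-free and DMSO-only wells.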

[1] = test system: IL-6 levels in human whole blood stimulated with a TLR2 agonist; experiment: IRAK4 Whole Blood Assay (lipoteichoic acid/TLR2-stimulated IL-6); type: cell-based; settings: lipoteichoic acid 10 μg/mL, IL-6 readout
In short: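 IL-6 was quantified by cytometric bead assay in supernatants of human blood (ACD-A) stimulated for 5 h with lipoteichoic acid at 10 μg/mL final. Compound exposure preceded stimulation for 60 min at 37 °C, 5% CO2.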

Chain of IRAK4 (Q9NWZ3 whole entry): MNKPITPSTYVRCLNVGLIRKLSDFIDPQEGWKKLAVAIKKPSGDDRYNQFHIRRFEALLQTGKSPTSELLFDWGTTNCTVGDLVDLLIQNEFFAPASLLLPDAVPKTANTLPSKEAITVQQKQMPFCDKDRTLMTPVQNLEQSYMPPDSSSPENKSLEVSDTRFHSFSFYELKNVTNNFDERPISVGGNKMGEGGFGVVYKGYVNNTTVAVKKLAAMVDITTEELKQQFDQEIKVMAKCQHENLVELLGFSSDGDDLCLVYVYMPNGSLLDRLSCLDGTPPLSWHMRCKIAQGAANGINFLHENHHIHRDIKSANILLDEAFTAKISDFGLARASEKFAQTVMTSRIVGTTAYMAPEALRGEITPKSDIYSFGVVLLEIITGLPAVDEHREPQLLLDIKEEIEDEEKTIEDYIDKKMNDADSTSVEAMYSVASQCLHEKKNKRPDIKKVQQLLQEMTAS

| SMILES | IC50 (IRAK4) [nM] | EC50 ([1]; Homo sapiens) [nM] | EC50 [1] [nM] |
| --- | --- | --- | --- |
| C[C@@H](CF)Nc1cc(-c2cnc3cc(C#N)cnn23)ncc1C(=O)NCCC(C)(C)O [Example 221, (S)-6-(7-cyanoimidazo[1,2-b]pyridazin-3-yl)-4-((1-fluoropropan-2-yl)amino)-N-(3-hydroxy-3-methylbutyl)nicotinamide] | 14 | 570 | – |
| CC(C)(O)[C@H](F)CNC(=O)c1cnc(-c2cnc3cc(C(F)F)cnn23)cc1NC1COC1 [Example 222, (R)-6-(7-(difluoromethyl)imidazo[1,2-b]pyridazin-3-yl)-N-(2-fluoro-3-hydroxy-3-methylbutyl)-4-(oxetan-3-ylamino)nicotinamide] | 7 | 630 | – |
| COC(=O)N[C@H]1CC[C@H](NC(=O)c2cnc(-c3cnc4cc(C#N)cnn34)cc2NC(C)C)CC1 [Example 223, methyl((1r,4r)-4-(6-(7-cyanoimidazo[1,2-b]pyridazin-3-yl)-4-(isopropylamino)nicotinamido)cyclohexyl)carbamate] | 13 | 810 | – |
| COC(=O)N[C@H]1CC[C@H](NC(=O)c2cnc(-c3cnc4cc(C#N)cnn34)cc2NC2(C)CC2)CC1 [Example 224, methyl ((1r,4r)-4-(6-(7-cyanoimidazo[1,2-b]pyridazin-3-yl)-4-((1-methylcyclopropyl)amino)nicotinamido)cyclohexyl)carbamate] | 7 | 570 | – |
| CC(C)n1cc(Nc2cc(-c3cnn4cc(Cl)cnc34)ncc2C(=O)NC[C@@H](F)C(C)(C)O)cn1 [Example 233, (R)-6-(6-chloropyrazolo[1,5-a]pyrimidin-3-yl)-N-(2-fluoro-3-hydroxy-3-methylbutyl)-4-((1-isopropyl-1H-pyrazol-4-yl)amino)nicotinamide] | 6 | 570 | – |
| CC(C)(O)[C@H](F)CNC(=O)c1cnc(-c2cnn3cc(C#N)cnc23)cc1Nc1cnn(C(F)F)c1 [Example 234, (R)-6-(6-cyanopyrazolo[1,5-a]pyrimidin-3-yl)-4-((1-(difluoromethyl)-1H-pyrazol-4-yl)amino)-N-(2-fluoro-3-hydroxy-3-methylbutyl)nicotinamide] | 3 | 540 | – |
| CC(C)(O)[C@H](F)CNC(=O)c1cnc(-c2cnn3cc(Cl)cnc23)cc1Nc1cnn(CC(F)(F)F)c1 [Example 237, (R)-6-(6-chloropyrazolo[1,5-a]pyrimidin-3-yl)-N-(2-fluoro-3-hydroxy-3-methylbutyl)-4-((1-(2,2,2-trifluoroethyl)-1H-pyrazol-4-yl)amino)nicotinamide] | 2 | – | 690 |
| O=C(N[C@H]1CC[C@H](O)CC1)c1cnc(-c2cnn3cc(Cl)cnc23)cc1Nc1cnn(CC(F)F)c1 [Example 252, 6-(6-chloropyrazolo[1,5-a]pyrimidin-3-yl)-4-((1-(2,2-difluoroethyl)-1H-pyrazol-4-yl)amino)-N-((1r,4r)-4-hydroxycyclohexyl) nicotinamide] | 3 | 930 | – |
| CC(C)(O)[C@H]1CC[C@H](NC(=O)c2cnc(-c3cnn4cc(Cl)cnc34)cc2Nc2cnn(C3CC3)c2)CC1 [Example 254, 6-(6-chloropyrazolo[1,5-a]pyrimidin-3-yl)-4-((1-cyclopropyl-1H-pyrazol-4-yl)amino)-N-((1r,4r)-4-(2-hydroxypropan-2-yl)cyclohexyl)nicotinamide] | 2 | 470 | – |
| Cn1cc(Nc2cc(-c3cnn4cc(Cl)cnc34)ncc2C(=O)NCCC(C)(C)O)cn1 [Example 255, 6-(6-chloropyrazolo[1,5-a]pyrimidin-3-yl)-N-(3-hydroxy-3-methylbutyl)-4-((1-methyl-1H-pyrazol-4-yl)amino)nicotinamide] | 5 | 720 | – |
| Cn1cc(Nc2cc(-c3cnn4cc(Cl)cnc34)ncc2C(=O)N[C@H]2CC[C@H](C(C)(C)O)CC2)cn1 [Example 256, 6-(6-chloropyrazolo[1,5-a]pyrimidin-3-yl)-N-((1r,4r)-4-(2-hydroxypropan-2-yl)cyclohexyl)-4-((1-methyl-1H-pyrazol-4-yl)amino)nicotinamide] | 3 | 790 | – |
| COC(=O)N[C@H]1CC[C@H](NC(=O)c2cnc(-c3cnn4cc(Cl)cnc34)cc2Nc2cnn(C)c2)CC1 [Example 257, methyl ((1r,4r)-4-(6-(6-chloropyrazolo[1,5-a]pyrimidin-3-yl)-4-((1-methyl-1H-pyrazol-4-yl)amino)nicotinamido)cyclohexyl)carbamate] | 14 | 710 | – |
| CC(C)(O)[C@H]1CC[C@H](NC(=O)c2cnc(-c3cnc4cc(Cl)cnn34)cc2Nc2cnn(CC(F)F)c2)CC1 [Example 264, 6-(7-chloroimidazo[1,2-b]pyridazin-3-yl)-4-((1-(2,2-difluoroethyl)-1H-pyrazol-4-yl)amino)-N-((1r,4r)-4-(2-hydroxypropan-2-yl)cyclohexyl)nicotinamide] | 2 | 910 | – |
| CC(F)(F)Cn1ccc(Nc2cc(-c3cnc4cc(C#N)cnn34)ncc2C(=O)NC[C@@H](F)C(C)(C)O)n1 [Example 268, (R)-6-(7-cyanoimidazo[1,2-b]pyridazin-3-yl)-4-((1-(2,2-difluoropropyl)-1H-pyrazol-3-yl)amino)-N-(2-fluoro-3-hydroxy-3-methylbutyl)nicotinamide] | 3 | 960 | – |
| CC(F)(F)Cn1cc(Nc2cc(-c3cnc4cc(C#N)cnn34)ncc2C(=O)NC[C@@H](F)C(C)(C)F)cn1 [Example 269, (R)-6-(7-cyanoimidazo[1,2-b]pyridazin-3-yl)-N-(2,3-difluoro-3-methylbutyl)-4-((1-(2,2-difluoropropyl)-1H-pyrazol-4-yl)amino)nicotinamide] | 2 | 560 | – |
| Cn1cc(Nc2cc(-c3cnc4cc(Cl)cnn34)ncc2C(=O)NC[C@@H](F)C(C)(C)O)cn1 [Example 271, (R)-6-(7-chloroimidazo[1,2-b]pyridazin-3-yl)-N-(2-fluoro-3-hydroxy-3-methylbutyl)-4-((1-methyl-1H-pyrazol-4-yl)amino)nicotinamide] | 4 | 170 | – |
| CC(C)(O)[C@H](F)CNC(=O)c1cnc(-c2cnc3cc(C#N)cnn23)cc1Nc1cnn(C(F)F)c1 [Example 273, (R)-6-(7-cyanoimidazo[1,2-b]pyridazin-3-yl)-4-((1-(difluoromethyl)-1H-pyrazol-4-yl)amino)-N-(2-fluoro-3-hydroxy-3-methylbutyl)nicotinamide] | 7 | 380 | – |
| Cn1cc(Nc2cc(-c3cnc4cc(C#N)cnn34)ncc2C(=O)NC[C@@H](F)C(C)(C)O)cn1 [Example 274, (R)-6-(7-cyanoimidazo[1,2-b]pyridazin-3-yl)-N-(2-fluoro-3-hydroxy-3-methylbutyl)-4-((1-methyl-1H-pyrazol-4-yl)amino)nicotinamide] | 9 | 590 | – |
| CC(C)(O)[C@H](F)CNC(=O)c1cnc(-c2cnc3cc(Cl)cnn23)cc1Nc1cnn(CC(F)(F)F)c1 [Example 275, (R)-6-(7-chloroimidazo[1,2-b]pyridazin-3-yl)-N-(2-fluoro-3-hydroxy-3-methylbutyl)-4-((1-(2,2,2-trifluoroethyl)-1H-pyrazol-4-yl)amino)nicotinamide] | 1 | 440 | – |
